Reference: US9371265B2, “Compositions and methods related to inhibitors of JAK kinase” (EP PHARMA, INC., priority 2012, dated 2016)

Columns and labels:
ADCK3 = ADCK3 (Homo sapiens, UniProt Q8NI60); assay: Kinase panel: ADCK3; assay type: biochemical; details: 10 μM EP009
Protocol: (§1) Achieving JAK3 selectivity remains a significant challenge in the development of new small molecules for the treatment of cancer and immune-derived diseases. As such, the inventors employed cell-based screening assays of small-molecule libraries based upon the chemical scaffold of the established JAK3 inhibitor NC1153 (Stepkowski et al., J Immunol. (2005), 175(7):4236-4246) EP009 (FIG. 2A) was selected as a lead compound due to improved intrinsic stability (>95% purity in various solvents at 37° C. for 24 hours; FIG. 3) and high-degree of JAK3 selectivity. To test JAK3 versus JAK2 specificity of EP009, the IL-2/JAK3-dependent Kit225, and IL-3/JAK2-dependent BaF/3 cell lines were used. Kit225 and BaF/3 cells growing in the presence of IL-2 or IL-3, respectively, were treated with ascending concentrations of EP009 for 12 hours and cellular JAK3 and JAK2 tyrosine phosphorylation levels detected by Western blot analysis (FIGS. 2B and 2C). Following densitometric analysis, EP009 was determined to dose-dependently reduce IL-2-mediated JAK3 tyrosine phosphorylation with a cellular 50% inhibitory concentration (IC50) between 10 and 20 μM (FIG. 2B). […] To globally evaluate specificity, the inhibitory activity of EP009 was measured against a panel of protein kinases distributed throughout the kinome using the scanEDGE profiling service (KINOMEscan). […]

BRAF(V600E) = BRAF(V600E) (Homo sapiens, UniProt P15056, V600E); assay: Kinase panel: BRAF(V600E); assay type: biochemical; details: 10 μM EP009
Chain of BRAF(V600E) (P15056 whole entry V600E): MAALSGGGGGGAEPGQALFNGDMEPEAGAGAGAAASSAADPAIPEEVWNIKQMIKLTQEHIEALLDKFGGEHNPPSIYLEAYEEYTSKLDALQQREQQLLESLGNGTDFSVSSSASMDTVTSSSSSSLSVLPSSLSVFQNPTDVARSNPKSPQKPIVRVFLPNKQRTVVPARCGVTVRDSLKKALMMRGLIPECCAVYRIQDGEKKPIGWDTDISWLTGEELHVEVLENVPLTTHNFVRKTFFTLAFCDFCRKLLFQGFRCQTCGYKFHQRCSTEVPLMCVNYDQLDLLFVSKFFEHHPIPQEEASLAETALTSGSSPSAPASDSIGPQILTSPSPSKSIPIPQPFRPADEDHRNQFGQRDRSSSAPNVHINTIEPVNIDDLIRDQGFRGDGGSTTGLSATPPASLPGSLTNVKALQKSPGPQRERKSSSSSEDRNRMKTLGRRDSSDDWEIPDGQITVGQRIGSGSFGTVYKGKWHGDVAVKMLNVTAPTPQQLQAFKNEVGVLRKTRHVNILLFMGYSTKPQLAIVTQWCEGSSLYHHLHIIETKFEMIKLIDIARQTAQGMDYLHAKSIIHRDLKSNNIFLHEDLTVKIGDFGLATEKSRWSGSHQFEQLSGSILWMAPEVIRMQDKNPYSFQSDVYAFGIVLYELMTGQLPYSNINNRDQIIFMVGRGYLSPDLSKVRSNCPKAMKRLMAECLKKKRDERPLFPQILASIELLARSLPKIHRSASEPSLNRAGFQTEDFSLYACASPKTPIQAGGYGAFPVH
Protocol: as §1

BRAF = BRAF (Homo sapiens, UniProt P15056); assay: Kinase panel: BRAF; assay type: biochemical; details: 10 μM EP009
Chain of BRAF (P15056 whole entry): as the sequence (P15056 whole entry V600E) above, with E600V counted along it
Protocol: as §1

JNK1/2 = assay: Phospho-JNK1/2 in SU-DHL-1 cells (Luminex multiplex); assay type: cell-based, human; details: 24 hours, dose-dependent
Protocol: (§2) FIGS. 8A-8F. Effect of EP009 on ALCL cells is mediated through selective activation of ERK1/2 and JNK1/2 stress signaling pathways, and inhibition of p70 S6 kinase growth signaling pathways. SU-DHL-1 cells were treated with vehicle (PBS) or increasing amounts of EP009 (0-50 μM) for 24 hours. Cells were then lysed, clarified, and subjected to Luminex multiplex analysis to detect phosphorylated (A) ERK1/2, (B) JNK1/2, (C) p70 S6 kinase, (D) IκBα, (E) CREB, and (F) p38. Values represent mean fluorescence intensity (MFI) normalized to corresponding GAPDH MFI, while error bars represent the standard deviation (n=2). Representative data from two independent experiments are shown. Statistical significance was determined using Student's t-test. (*, p<0.05).
(§3) The MILLIPLEX MAP 8-plex Multi-Pathway Signaling Phosphoprotein kit (Millipore) was used to detect phosphorylated ERK1/2 (Thr185/Tyr187), STAT3 (Ser727), JNK1/2 (Thr183/Tyr185), p70 S6 kinase (Thr412), IκBα (Ser32), STAT5A/B (Tyr694/699), CREB (Ser133), and p38 (Thr180/Tyr182). The MILLIPLEX MAP 5-plex STAT Phosphoprotein kit (Millipore) was used to detect phosphorylated STAT1 (Tyr701), STAT2 (Tyr690), STAT3 (Tyr705), STAT5A/B (Tyr694/699), and STAT6 (Tyr641). The MILLIPLEX MAP Human Apoptosis 3-plex kit (Millipore) was used to detect cleaved PARP, cleaved Caspase 3, and total GAPDH for protein normalization.

panel of protein kinases = assay: Protein kinase panel profiling (whole panel); assay type: biochemical; details: 10 μM EP009
Protocol: as §1

p38 MAP kinase = assay: Phospho-p38 in SU-DHL-1 cells (Luminex multiplex); assay type: cell-based, human; details: 24 hours
Protocol: as §2, §3

INSR = INSR (Homo sapiens, UniProt P06213); assay: Kinase panel: INSR; assay type: biochemical; details: 10 μM EP009
Chain of INSR (P06213 28-1382): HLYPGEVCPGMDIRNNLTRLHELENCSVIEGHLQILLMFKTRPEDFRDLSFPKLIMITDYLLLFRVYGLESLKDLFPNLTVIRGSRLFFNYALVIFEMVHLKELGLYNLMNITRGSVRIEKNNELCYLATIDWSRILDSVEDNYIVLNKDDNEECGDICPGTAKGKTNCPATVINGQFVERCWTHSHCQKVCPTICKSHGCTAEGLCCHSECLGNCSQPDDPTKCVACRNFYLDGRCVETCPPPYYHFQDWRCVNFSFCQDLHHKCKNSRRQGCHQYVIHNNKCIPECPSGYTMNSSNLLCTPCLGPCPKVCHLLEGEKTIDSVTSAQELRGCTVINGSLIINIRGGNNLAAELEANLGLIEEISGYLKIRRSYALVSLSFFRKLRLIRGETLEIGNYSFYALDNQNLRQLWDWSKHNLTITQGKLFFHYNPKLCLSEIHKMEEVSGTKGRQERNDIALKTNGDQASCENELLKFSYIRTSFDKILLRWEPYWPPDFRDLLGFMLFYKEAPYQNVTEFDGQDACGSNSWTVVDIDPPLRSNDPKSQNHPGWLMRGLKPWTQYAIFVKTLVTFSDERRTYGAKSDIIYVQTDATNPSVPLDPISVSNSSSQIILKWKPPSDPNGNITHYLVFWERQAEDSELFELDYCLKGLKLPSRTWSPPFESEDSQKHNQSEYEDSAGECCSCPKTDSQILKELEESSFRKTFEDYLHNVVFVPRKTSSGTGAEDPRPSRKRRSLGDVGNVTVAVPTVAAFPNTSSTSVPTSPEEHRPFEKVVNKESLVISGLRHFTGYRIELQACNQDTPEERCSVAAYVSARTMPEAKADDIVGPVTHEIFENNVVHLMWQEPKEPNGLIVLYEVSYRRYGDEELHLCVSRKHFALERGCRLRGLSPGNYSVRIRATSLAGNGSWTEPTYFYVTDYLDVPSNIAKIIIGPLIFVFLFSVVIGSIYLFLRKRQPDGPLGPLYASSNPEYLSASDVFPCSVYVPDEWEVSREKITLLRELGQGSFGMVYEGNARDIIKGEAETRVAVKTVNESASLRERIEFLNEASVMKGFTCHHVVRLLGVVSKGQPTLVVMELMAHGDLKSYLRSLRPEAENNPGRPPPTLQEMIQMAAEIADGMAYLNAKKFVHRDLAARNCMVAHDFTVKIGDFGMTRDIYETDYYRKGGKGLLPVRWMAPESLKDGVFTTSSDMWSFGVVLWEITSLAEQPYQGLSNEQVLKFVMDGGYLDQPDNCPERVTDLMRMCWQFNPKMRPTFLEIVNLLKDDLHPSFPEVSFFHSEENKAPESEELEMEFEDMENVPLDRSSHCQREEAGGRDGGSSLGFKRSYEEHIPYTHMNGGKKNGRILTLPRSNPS
Protocol: as §1

p38-beta = p38-beta (Homo sapiens, UniProt Q15759); assay: Kinase panel: p38-beta; assay type: biochemical; details: 10 μM EP009
Chain of p38-beta (Q15759 whole entry): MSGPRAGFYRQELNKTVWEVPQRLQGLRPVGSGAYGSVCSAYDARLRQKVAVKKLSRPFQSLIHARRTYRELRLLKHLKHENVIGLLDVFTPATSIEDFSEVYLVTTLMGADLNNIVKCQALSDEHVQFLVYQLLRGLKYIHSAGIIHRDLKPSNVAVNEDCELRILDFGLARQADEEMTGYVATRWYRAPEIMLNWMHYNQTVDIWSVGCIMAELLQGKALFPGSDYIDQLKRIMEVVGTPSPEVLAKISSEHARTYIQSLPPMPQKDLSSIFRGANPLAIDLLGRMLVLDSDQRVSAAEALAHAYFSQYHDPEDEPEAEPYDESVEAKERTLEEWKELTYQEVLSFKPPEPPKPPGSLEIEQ
Protocol: as §1

VEGFR2 = VEGFR2 (Homo sapiens, UniProt P35968); assay: Kinase panel: VEGFR2; assay type: biochemical; details: 10 μM EP009
Chain of VEGFR2 (P35968 20-1356): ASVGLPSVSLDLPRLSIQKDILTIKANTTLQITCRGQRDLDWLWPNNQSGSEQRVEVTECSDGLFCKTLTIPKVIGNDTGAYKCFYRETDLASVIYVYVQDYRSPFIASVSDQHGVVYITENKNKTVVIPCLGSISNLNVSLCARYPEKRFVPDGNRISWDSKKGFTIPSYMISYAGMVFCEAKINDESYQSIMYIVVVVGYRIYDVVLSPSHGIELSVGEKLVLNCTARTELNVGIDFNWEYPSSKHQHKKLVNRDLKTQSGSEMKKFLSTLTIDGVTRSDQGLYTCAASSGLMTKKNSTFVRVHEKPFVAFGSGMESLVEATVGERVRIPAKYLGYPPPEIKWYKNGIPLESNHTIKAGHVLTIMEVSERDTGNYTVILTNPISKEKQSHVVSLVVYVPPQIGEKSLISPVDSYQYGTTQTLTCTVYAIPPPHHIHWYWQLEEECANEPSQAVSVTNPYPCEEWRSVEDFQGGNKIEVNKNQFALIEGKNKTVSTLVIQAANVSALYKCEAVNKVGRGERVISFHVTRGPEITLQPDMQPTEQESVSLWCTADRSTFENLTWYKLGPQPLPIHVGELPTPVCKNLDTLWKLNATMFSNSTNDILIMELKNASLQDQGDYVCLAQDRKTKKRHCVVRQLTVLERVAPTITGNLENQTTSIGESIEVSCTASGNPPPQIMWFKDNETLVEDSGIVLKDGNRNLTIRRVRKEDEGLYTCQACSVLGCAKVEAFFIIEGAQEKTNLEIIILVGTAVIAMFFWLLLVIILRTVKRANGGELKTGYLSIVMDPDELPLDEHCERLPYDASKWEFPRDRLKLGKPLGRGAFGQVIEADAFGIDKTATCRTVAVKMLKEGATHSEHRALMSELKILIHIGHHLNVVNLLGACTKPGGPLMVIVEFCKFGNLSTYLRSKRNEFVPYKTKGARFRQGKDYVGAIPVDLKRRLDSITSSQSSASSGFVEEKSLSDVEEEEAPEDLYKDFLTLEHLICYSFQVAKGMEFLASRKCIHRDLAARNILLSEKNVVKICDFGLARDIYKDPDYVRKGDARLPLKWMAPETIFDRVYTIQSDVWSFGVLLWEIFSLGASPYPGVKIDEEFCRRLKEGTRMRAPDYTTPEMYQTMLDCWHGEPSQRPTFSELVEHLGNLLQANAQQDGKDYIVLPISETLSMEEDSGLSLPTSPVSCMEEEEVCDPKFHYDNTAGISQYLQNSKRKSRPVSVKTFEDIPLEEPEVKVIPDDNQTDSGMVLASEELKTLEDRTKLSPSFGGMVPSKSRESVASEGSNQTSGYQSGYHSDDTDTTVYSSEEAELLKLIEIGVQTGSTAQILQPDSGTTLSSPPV
Protocol: as §1

CDK7 = CDK7 (Homo sapiens, UniProt P50613); assay: Kinase panel: CDK7; assay type: biochemical; details: 10 μM EP009
Protocol: as §1

EPHA2 = EPHA2 (Homo sapiens, UniProt P29317); assay: Kinase panel: EPHA2; assay type: biochemical; details: 10 μM EP009
Protocol: as §1

SNARK = SNARK (Homo sapiens, UniProt Q9H093); assay: Kinase panel: SNARK; assay type: biochemical; details: 10 μM EP009
Chain of SNARK (Q9H093 whole entry): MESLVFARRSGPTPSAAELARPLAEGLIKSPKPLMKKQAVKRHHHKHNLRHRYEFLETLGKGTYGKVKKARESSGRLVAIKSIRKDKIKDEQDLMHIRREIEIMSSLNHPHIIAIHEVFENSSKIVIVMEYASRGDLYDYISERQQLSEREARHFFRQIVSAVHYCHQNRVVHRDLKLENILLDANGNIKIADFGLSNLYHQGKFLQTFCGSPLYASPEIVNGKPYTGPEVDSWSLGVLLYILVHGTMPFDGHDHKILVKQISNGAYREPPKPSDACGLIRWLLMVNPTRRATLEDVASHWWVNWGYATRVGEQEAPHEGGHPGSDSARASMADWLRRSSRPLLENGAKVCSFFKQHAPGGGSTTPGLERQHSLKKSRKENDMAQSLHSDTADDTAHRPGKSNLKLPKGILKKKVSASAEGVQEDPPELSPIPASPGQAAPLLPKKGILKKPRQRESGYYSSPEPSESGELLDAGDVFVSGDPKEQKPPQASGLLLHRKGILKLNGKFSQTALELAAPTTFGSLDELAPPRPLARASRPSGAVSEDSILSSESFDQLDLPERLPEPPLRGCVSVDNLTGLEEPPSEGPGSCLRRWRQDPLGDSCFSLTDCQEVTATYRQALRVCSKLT
Protocol: as §1

ROCK2 = ROCK2 (Homo sapiens, UniProt O75116); assay: Kinase panel: ROCK2; assay type: biochemical; details: 10 μM EP009
Protocol: as §1

PIK3CA = PIK3CA (Homo sapiens, UniProt P42336); assay: Kinase panel: PIK3CA; assay type: biochemical; details: 10 μM EP009
Protocol: as §1

Chain of ADCK3 (Q8NI60 163-647): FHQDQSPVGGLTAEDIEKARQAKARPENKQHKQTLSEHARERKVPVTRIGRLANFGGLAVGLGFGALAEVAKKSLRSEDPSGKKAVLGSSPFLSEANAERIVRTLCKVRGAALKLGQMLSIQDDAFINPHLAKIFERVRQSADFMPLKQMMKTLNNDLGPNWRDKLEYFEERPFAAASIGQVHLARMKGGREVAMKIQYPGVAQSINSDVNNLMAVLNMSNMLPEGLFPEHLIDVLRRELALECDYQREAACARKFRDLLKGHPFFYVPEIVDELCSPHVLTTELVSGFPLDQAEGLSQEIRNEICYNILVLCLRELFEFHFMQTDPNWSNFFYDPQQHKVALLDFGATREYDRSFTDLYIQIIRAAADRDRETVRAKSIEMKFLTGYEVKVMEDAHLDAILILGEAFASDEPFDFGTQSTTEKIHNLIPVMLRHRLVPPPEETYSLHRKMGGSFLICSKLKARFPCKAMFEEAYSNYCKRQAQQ

For `C=C1CCCCCCCCCC(CO)C1=O` (centres unmarked) [EP009, 2-(Hydroxymethyl)-12-methylenecyclododecanone], the “Kinase Activity (% of Control)” value (ADCK3) was 98 % of Control, the “Kinase Activity (% of Control)” value (BRAF(V600E)) was 76 % of Control and the “Kinase Activity (% of Control)” value (BRAF) was 72 % of Control. For the same compound, the JNK1/2 phosphorylation (JNK1/2) was “induced phosphorylation and activation”, the “inhibition against the kinases tested” value (panel of protein kinases) was < 50% and the “p38 MAP kinase phosphorylation status” value (p38 MAP kinase) was “No statistically significant change”. The “Kinase Activity (% of Control)” value (INSR) was 100 % of Control, the “Kinase Activity (% of Control)” value (p38-beta) was 96 % of Control and the “Kinase Activity (% of Control)” value (VEGFR2) was 100 % of Control. The “Kinase Activity (% of Control)” value (CDK7) was 99 % of Control, the “Kinase Activity (% of Control)” value (EPHA2) was 100 % of Control and the “Kinase Activity (% of Control)” value (SNARK) was 82 % of Control. For the same compound, the “Kinase Activity (% of Control)” value (ROCK2) was 99 % of Control and the “Kinase Activity (% of Control)” value (PIK3CA) was 76 % of Control.
